Converted amounts (≈) assume the structure as drawn. Counter-ions that a name gives are not always drawn.
Assay: physchem
[1] = water, 20 °C, thermodynamic from solid

Experimental: The water solubility of the pharmacologically active ingredient was determined by the method described in the Japanese Pharmacopoeia, the General Rule 13, Paragraph 23.

Row | Structure (SMILES) | solubility at 30 min [1] [mg/mL] | solubility at 30 min (20 °C, water, thermodynamic from solid) [mg/mL]
1 | Nc1c(Br)cc(Br)cc1CN[C@H]1CC[C@H](O)CC1 [ambroxol hydrochloride] | ~20 | –
2 | C[C@H](CS)C(=O)N1CCC[C@H]1C(=O)O [captopril] | ~60 (≈ 276000 µM) | –
3 | O=c1[nH]c2ccccc2n1CCCN1CCC(n2c(=O)[nH]c3cc(Cl)ccc32)CC1 [domperidone] | ~0.002 (≈ 4.7 µM) | –
4 | NC(N)=Nc1nc(CSCCC(N)=NS(N)(=O)=O)cs1 [famotidine] | ~0.7 (≈ 2070 µM) | –
5 | CN(C)C(=O)C(CCN1CCC(O)(c2ccc(Cl)cc2)CC1)(c1ccccc1)c1ccccc1 [loperamide hydrochloride] | – | ~1
6 | COc1ccc(OC)c(C(O)CNC(=O)CN)c1 (stereo not drawn) [midodrine hydrochloride] | ~100 | –
